{
  "source": "patent US9535067B2",
  "about": "“DOT1L probes” (DANA-FARBER CANCER INSTITUTE, INC., priority 2013, dated 2017)",
  "target": "DOT1L (Homo sapiens, UniProt Q8TEK3)",
  "sequence (Q8TEK3 whole entry, species assumed)": "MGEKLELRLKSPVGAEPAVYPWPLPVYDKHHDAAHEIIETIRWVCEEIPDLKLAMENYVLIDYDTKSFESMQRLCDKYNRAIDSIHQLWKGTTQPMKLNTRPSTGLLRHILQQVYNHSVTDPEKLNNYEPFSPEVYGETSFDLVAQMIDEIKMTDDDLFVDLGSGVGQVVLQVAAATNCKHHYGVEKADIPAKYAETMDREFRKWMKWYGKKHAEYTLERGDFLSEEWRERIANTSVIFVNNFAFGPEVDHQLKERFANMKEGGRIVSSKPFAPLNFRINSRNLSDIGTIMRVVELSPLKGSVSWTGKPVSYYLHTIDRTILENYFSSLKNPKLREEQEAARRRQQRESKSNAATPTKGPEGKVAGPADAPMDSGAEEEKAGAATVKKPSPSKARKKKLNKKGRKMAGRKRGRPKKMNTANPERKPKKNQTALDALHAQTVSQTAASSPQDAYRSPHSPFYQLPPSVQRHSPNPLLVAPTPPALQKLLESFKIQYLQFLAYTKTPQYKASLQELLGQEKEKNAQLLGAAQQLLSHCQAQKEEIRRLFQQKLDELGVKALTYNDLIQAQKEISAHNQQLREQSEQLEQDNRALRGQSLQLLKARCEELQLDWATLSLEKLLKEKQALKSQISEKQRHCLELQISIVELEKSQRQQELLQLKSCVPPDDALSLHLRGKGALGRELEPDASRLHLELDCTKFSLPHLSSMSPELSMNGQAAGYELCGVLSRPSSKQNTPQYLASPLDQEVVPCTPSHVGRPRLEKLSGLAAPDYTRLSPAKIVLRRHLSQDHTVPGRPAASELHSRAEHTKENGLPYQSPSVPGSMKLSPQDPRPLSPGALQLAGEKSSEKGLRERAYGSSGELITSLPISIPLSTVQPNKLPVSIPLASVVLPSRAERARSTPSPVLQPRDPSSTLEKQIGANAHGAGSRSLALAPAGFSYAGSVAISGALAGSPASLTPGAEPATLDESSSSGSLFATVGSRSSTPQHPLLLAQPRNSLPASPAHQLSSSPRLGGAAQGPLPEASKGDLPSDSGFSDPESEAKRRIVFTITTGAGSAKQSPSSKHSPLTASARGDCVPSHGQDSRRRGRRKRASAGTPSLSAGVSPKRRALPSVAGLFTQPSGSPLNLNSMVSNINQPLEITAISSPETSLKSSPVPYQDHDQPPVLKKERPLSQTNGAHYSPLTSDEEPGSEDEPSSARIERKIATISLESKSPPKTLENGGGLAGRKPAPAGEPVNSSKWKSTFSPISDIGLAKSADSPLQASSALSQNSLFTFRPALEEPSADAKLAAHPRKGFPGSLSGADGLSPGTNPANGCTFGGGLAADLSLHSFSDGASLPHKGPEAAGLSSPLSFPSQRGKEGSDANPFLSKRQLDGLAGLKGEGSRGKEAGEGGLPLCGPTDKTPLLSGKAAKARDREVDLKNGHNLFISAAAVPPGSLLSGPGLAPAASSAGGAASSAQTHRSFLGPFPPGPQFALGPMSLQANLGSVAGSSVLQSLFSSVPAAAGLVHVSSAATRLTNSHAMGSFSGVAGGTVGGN",
  "experiment": "Differential Scanning Fluorimetry (DFS) Assay",
  "assay_type": "binding",
  "source_text": "DFS enables assays suitable for high throughput screening assays for the effect of a small molecule on protein stability. DFS assays measures the thermal stability of a target protein and a subsequent increase in protein melting temperature upon binding of a ligand to the protein. Generally, specific binding will stabilize the protein. An exemplary protocol for performing a DFS for detecting the binding of (with or without a test compound) a fluorescence labeled probe to DOT1L, or an analog thereof, is as follows.\nFirst, a protein solution comprising DOT1L or an active fragment thereof (e.g., DOT1L SET domain) is prepared in a suitable buffer at a desired concentration (e.g., 0.1 μM. 0.5 μM, 1.0 μM, 2.5 μM, 5.0 μM, 10 μM, 20 μM, or 100 μM). Then, a probe solution comprising a compound of formula (I), (le), (If) or (Ig) is prepared. A volume of the protein solution is combined with a volume of the probe solution in the presence or absence of a test compound. Binding of the probe to DOT1L or an active fragment thereof is then measured using a fluorometer.",
  "data": [
    {"smiles": "CC(C)N(CCCNC(=O)Nc1ccc(C(C)(C)C)cc1)C[C@H]1O[C@@H](n2cnc3c(NCCCC(=O)NCCCOCCOCCOCCCNC(=O)CCCC[C@@H]4SC[C@@H]5NC(=O)N[C@@H]54)ncnc32)[C@H](O)[C@@H]1O", "note": "[JQPROB2B]", "values": [
      {"measurement": "binding effect / binding affinity against DOT1L (thermal stabilisation, FIG. 1)", "result": "reasonable binding affinity"}
    ]}
  ]
}
